Measured values reported in ChEMBL document CHEMBL1201862, “PubChem BioAssay data set” (2004).
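Interpolation was linear, between the two tested concentrations surrounding the appropriate level; five concentrations were tested over 48 hours in 96-well plates. GI50 marks 50% less growth.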 Active and inactive are the calls of the source. Rule as the data show it: active = GI50 up to about 1.1 µM and inactive = higher.

Columns and labels:
Test in all cases: inhibition of tumour cell growth, NCI panel, 48 h
NCI-H226 = tested on: NCI-H226
SF-539 = tested on: SF-539
UACC-257 = tested on: UACC-257
SK-OV-3 = tested on: SK-OV-3
M14 = tested on: M14
HCT-116 = tested on: HCT-116
SF-295 = tested on: SF-295
KM12 = tested on: KM12
OVCAR-3 = tested on: OVCAR-3
HT-29 = tested on: HT-29
SW-620 = tested on: SW-620
UACC-62 = tested on: UACC-62
RXF 393 = tested on: RXF 393
CCRF-CEM = tested on: CCRF-CEM
SNB-75 = tested on: SNB-75
HL-60 = tested on: HL-60
PC-3 = tested on: PC-3
EKVX = tested on: EKVX
SK-MEL-28 = tested on: SK-MEL-28
A498 = tested on: A498

Row | SMILES | GI50 (NCI-H226) | GI50 (SF-539) | GI50 (UACC-257) | GI50 (SK-OV-3) | GI50 (M14) | GI50 (HCT-116) | GI50 (SF-295) | GI50 (KM12) | GI50 (OVCAR-3) | GI50 (HT-29) | GI50 (SW-620) | GI50 (UACC-62) | GI50 (RXF 393) | GI50 (CCRF-CEM) | GI50 (SNB-75) | GI50 (HL-60) | GI50 (PC-3) | GI50 (EKVX) | GI50 (SK-MEL-28) | GI50 (A498)
1 | O=C(C/N=C(\CN(c1ccccc1)c1ccccc1)Oc1c(Cl)cc(Cl)cc1Cl)N1c2ccccc2Sc2ccccc21 | 24.4 µM (inactive) | > 100 µM (inactive) | > 100 µM (inactive) | 29.6 µM (inactive) | 30.5 µM (inactive) | 34.9 µM (inactive) | > 100 µM (inactive) | 38.1 µM (inactive) | 46.8 µM (inactive) | 43.3 µM (inactive) | 65 µM (inactive) | 4.61 µM (inactive) | 0.101 µM (active) | 41.8 µM (inactive) | 22.3 µM (inactive) | 47.4 µM (inactive) | 34 µM (inactive) | > 100 µM (inactive) | > 100 µM (inactive) | 
2 | CC1OC2OC3C(OCC(O)C3O)OC(=O)[C@]34CCC(C)(C)CC3C3=CCC5[C@@]6(C)C[C@H](O)[C@H](OC7OC(CO)C(O)C(O)C7OC7OC(COC(=O)CC(C)(O)CC(=O)OC1C(O)C2O)C(O)C(O)C7O)[C@@](C)(CO)C6CC[C@@]5(C)[C@]3(C)CC4 (stereo not given in full) | 2.48 µM (inactive) | 2.56 µM (inactive) | 1.43 µM (inactive) | 1.56 µM (inactive) | 1.43 µM (inactive) | 1.63 µM (inactive) | 1.78 µM (inactive) | 1.48 µM (inactive) | 1.53 µM (inactive) | 1.69 µM (inactive) | 1.16 µM (inactive) | 1.56 µM (inactive) |  | 1.51 µM (inactive) | 1.47 µM (inactive) | 1.4 µM (inactive) | 1.38 µM (inactive) |  | 1.5 µM (inactive) | 
3 | Cc1cc(C)nc(NS(=O)(=O)c2ccc(Nc3nncc(=O)n3N)cc2)n1 |  | 31.6 µM (inactive) | 19.8 µM (inactive) | 55.7 µM (inactive) | 34.8 µM (inactive) | 28.2 µM (inactive) | 31.6 µM (inactive) | 36.2 µM (inactive) | 16.3 µM (inactive) | 16.9 µM (inactive) | 16.2 µM (inactive) | 19.8 µM (inactive) |  | 3.62 µM (inactive) |  | 17.4 µM (inactive) | 21.5 µM (inactive) | 23.1 µM (inactive) | 26.5 µM (inactive) | 45.9 µM (inactive)
4 | O=C(CC(=O)N1N=C(N(c2ccccc2)c2ccccc2)CC1c1ccccc1)Nc1cccc(Cl)c1 (stereo not given) | > 100 µM (inactive) | > 100 µM (inactive) | > 100 µM (inactive) | > 100 µM (inactive) | > 100 µM (inactive) | > 100 µM (inactive) | > 100 µM (inactive) | > 100 µM (inactive) | > 100 µM (inactive) | > 100 µM (inactive) | > 100 µM (inactive) | > 100 µM (inactive) | > 100 µM (inactive) | > 100 µM (inactive) | > 100 µM (inactive) | > 100 µM (inactive) | > 100 µM (inactive) | > 100 µM (inactive) | > 100 µM (inactive) | 
5 | O=c1[nH]c2ccc(C(F)(F)F)cc2nc1C(F)(F)F | 18.8 µM (inactive) | 21.3 µM (inactive) | 23.6 µM (inactive) | 27.1 µM (inactive) | 31.9 µM (inactive) | 20.9 µM (inactive) | 28.7 µM (inactive) | 22.8 µM (inactive) | 14.9 µM (inactive) | 29.2 µM (inactive) |  | 27.9 µM (inactive) | 5 µM (inactive) | 11.1 µM (inactive) | 12.1 µM (inactive) |  | 23.3 µM (inactive) | 29.2 µM (inactive) | 28.8 µM (inactive) | 25.7 µM (inactive)
6 | CCC1=C(c2ccc(OC)cc2)CC[C@@]2(CCNC2=O)[C@@H]1C | > 100 µM (inactive) | > 100 µM (inactive) | 28.2 µM (inactive) | > 100 µM (inactive) | > 100 µM (inactive) | 76.2 µM (inactive) | > 55.2 µM (inactive) | > 94.2 µM (inactive) | > 100 µM (inactive) | > 67.6 µM (inactive) | > 100 µM (inactive) | > 100 µM (inactive) |  | 57.7 µM (inactive) | > 73.8 µM (inactive) |  | > 78.2 µM (inactive) | 59.4 µM (inactive) | > 100 µM (inactive) | > 100 µM (inactive)
7 | O=C(/C=C/c1ccccc1)OCC1=C[C@@H](O)[C@@H]2C=CO[C@@H](OC3OC(CO)C(O)C(O)C3O)[C@H]12 (stereo not given in full) | > 100 µM (inactive) | > 100 µM (inactive) | > 100 µM (inactive) | > 100 µM (inactive) | > 100 µM (inactive) | > 100 µM (inactive) | > 100 µM (inactive) | > 100 µM (inactive) | > 100 µM (inactive) | > 100 µM (inactive) | > 100 µM (inactive) | > 100 µM (inactive) | > 100 µM (inactive) | > 100 µM (inactive) | > 100 µM (inactive) |  | > 100 µM (inactive) | > 100 µM (inactive) | > 100 µM (inactive) | > 100 µM (inactive)
8 | CCSc1nc(-c2cccs2)nc2ccc(I)cc12 | > 100 µM (inactive) | > 100 µM (inactive) | > 100 µM (inactive) |  | > 100 µM (inactive) | > 100 µM (inactive) | > 100 µM (inactive) | 72.8 µM (inactive) | 11.2 µM (inactive) | > 100 µM (inactive) | > 100 µM (inactive) | > 100 µM (inactive) | > 100 µM (inactive) | > 100 µM (inactive) | > 100 µM (inactive) | > 100 µM (inactive) | > 100 µM (inactive) | 46.9 µM (inactive) | > 100 µM (inactive) | 
